Measured values reported in patent EP4759807A1, “PROTEOLYSIS TARGETING CHIMERA COMPOUND FOR DEGRADING IRAK4 AND USE THEREOF” (Shenzhen Zhongge Biological Technology Co., Ltd., priority 2023, dated 2025).
Read-outs that look alike come from different tables or passages of the source.

Target: T1, IRAK4 (Homo sapiens, UniProt Q9NWZ3)
T1 sequence (Q9NWZ3 1-460): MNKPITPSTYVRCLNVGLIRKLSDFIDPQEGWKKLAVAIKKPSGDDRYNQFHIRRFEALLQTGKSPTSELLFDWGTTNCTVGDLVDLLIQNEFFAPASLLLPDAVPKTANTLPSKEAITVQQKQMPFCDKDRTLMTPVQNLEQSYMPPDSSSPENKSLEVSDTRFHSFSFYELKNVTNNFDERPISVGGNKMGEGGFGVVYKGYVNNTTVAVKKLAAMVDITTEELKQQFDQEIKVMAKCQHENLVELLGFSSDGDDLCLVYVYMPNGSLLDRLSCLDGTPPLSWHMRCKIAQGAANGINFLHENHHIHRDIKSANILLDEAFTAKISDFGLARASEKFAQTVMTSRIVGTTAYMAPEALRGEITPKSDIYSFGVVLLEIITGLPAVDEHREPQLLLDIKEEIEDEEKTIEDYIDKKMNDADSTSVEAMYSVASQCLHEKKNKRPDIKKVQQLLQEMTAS
Assay: Hibit fluorescence detection of proteolysis (IRAK4-HiBiT in HEK293T cells)
Type: cell-based
Design: host or cells: HEK293T (ATCC)
Conditions: for Dmax: HEK-293T; for DC50: IRAK4-HiBiT, HEK293T cells, 24 h
Experimental: Utilizing HiBiT tag technology, the HiBiT tag-containing sequence (Seq. ID. No. 1, Beijing Tsingke Biotech Co., Ltd.) was connected to the IRAK4 plasmid (Seq. ID. No. 2, Beijing Tsingke Biotech Co., Ltd.), and the plasmid was transfected into HEK293T cells (ATCC). […] The 6-well plate that was incubated overnight was taken out. After the plate was left at room temperature for 15 min, the obtained mixture was added dropwise to the 6-well plate. […] Culture was performed at 37°C and 5% CO2 for 24 h. The 384-well plate was taken out and equilibrated to room temperature. 40 µL of Nano-Glo® HiBiT Lytic Detection System (Promega N3030) was added to each well and incubated at room temperature for 15 min. […] Prism 9.3 software was used to perform fitting analysis for data, and non-linear fitting (non-liner inhibitor (Bell-shaped)) and four parameters (4 parameter) were used, and the parameters was as follows: Span1 = Plateau1−Dip [formula] Span2 = Plateau2−Dip [formula] Section1 = Span1/(1+10^(∧)((LogEC50_1−X)*nH1)) [formula] Section2 = Span2/(1+10^(∧)((X−LogEC50_2)*nH2)) [formula]
The equation was as follows: Y=Dip+Section1+Section2. • Seq. ID. No. 1 ([…]), other DNA, synthetic construct, sequence length 33; • Seq. ID. No. 2 [formula]

## Cn1c(=O)n(C2CCC(=O)NC2=O)c2cccc(N3CCC4(CCN(C[C@H]5CC[C@H](n6cc(-n7cc(-c8cnn9cc(C#N)cnc89)nn7)c(C(F)F)n6)CC5)C4)CC3)c21 (some centres unmarked) [Compound 189]
  Dmax: 60 to 70%
read-out: DC50
  DC50: 500 to 1000 pM

## Cn1c(=O)n(C2CCC(=O)NC2=O)c2cccc(N3CCC(N4CCN(C[C@H]5CC[C@H](n6cc(-n7cc(-c8cnn9cc(C#N)cnc89)nn7)c(C(F)F)n6)CC5)CC4)CC3)c21 (some centres unmarked) [Compound 197]
  Dmax: 60 to 70%
read-out: DC50
  DC50: 1000 to 5000 pM

## Cn1c(=O)n(C2CCC(=O)NC2=O)c2cccc(N3CCC4(CCN(C[C@H]5CC[C@H](n6cc(-n7cc(-c8cnn9cc(C#N)cnc89)nn7)c(C(F)F)n6)CC5)CC4)CC3)c21 (some centres unmarked) [Compound 199]
  Dmax: 60 to 70%
read-out: DC50
  DC50: 1000 to 5000 pM

## Cn1c(=O)n(C2CCC(=O)NC2=O)c2cccc(N3CCC4(CCN(C[C@H]5CC[C@H](n6cc(-n7cc(-c8cnn9cc(C#N)cnc89)nn7)c(C(F)F)n6)CC5)CC4)C3)c21 (some centres unmarked) [Compound 202]
  Dmax: < 60%
read-out: DC50
  DC50: 500 to 1000 pM

## C[C@H]1CN(c2ccn3ncc(-c4cn(-c5cn([C@H]6CC[C@H](CN7CCC8(CC7)CCN(c7cccc9c7n(C)c(=O)n9C7CCC(=O)NC7=O)C8)CC6)nc5C(F)F)nn4)c3n2)CCO1 (some centres unmarked) [Compound 203]
  Dmax: > 80%
read-out: DC50
  DC50: < 500 pM

## Cn1c(=O)n(C2CCC(=O)NC2=O)c2cccc(N3CCN(C4CCN(C[C@H]5CC[C@H](n6cc(-n7cc(-c8cnn9cc(C#N)cnc89)nn7)c(C(F)F)n6)CC5)CC4)CC3)c21 (some centres unmarked) [Compound 206]
  Dmax: < 60%
read-out: DC50
  DC50: 500 to 1000 pM

## C[C@H]1CN(c2ccn3ncc(-c4cn(-c5cn([C@H]6CC[C@H](CN7CC8(CCN(c9cccc%10c9n(C)c(=O)n%10C9CCC(=O)NC9=O)CC8)C7)CC6)nc5C(F)F)nn4)c3n2)CCO1 (some centres unmarked) [Compound 212]
  Dmax: > 80%
read-out: DC50
  DC50: < 500 pM

## Cn1c(=O)n(C2CCC(=O)NC2=O)c2cccc(N3CCC4(CCN(C[C@H]5CC[C@H](n6cc(-n7cc(-c8cnn9ccc(N%10CC%11(COC%11)C%10)nc89)nn7)c(C(F)F)n6)CC5)CC4)CC3)c21 (some centres unmarked) [Compound 223]
  Dmax: > 80%
read-out: DC50
  DC50: < 500 pM

## Cn1c(=O)n(C2CCC(=O)NC2=O)c2cccc(N3CCC(N4CCN(C[C@H]5CC[C@H](n6cc(-n7cc(-c8cnn9ccc(N%10CC%11(COC%11)C%10)nc89)nn7)c(C(F)F)n6)CC5)CC4)CC3)c21 (some centres unmarked) [Compound 224]
  Dmax: > 80%
read-out: DC50
  DC50: < 500 pM

## Cn1c(=O)n(C2CCC(=O)NC2=O)c2cccc(N3CCN(C[C@H]4CC[C@H](n5cc(-n6cc(-c7cnn8ccc(NCC9CC9)nc78)nn6)c(C(F)F)n5)CC4)CC3)c21 (some centres unmarked) [Compound 225]
  Dmax: 70 to 80%
read-out: DC50
  DC50: < 500 pM

## Cn1c(=O)n(C2CCC(=O)NC2=O)c2cccc(N[C@H]3CC[C@H](N(C)C[C@H]4CC[C@H](n5cc(-n6cc(-c7cnn8ccc(NCC9CC9)nc78)nn6)c(C(F)F)n5)CC4)CC3)c21 (some centres unmarked) [Compound 226]
  Dmax: > 80%
read-out: DC50
  DC50: < 500 pM

## CN1CCN(c2ccn3ncc(-c4cn(-c5cn([C@H]6CC[C@H](CN7CCN(c8cccc9c8n(C)c(=O)n9C8CCC(=O)NC8=O)CC7)CC6)nc5C(F)F)nn4)c3n2)CC1 (some centres unmarked) [Compound 227]
  Dmax: 60 to 70%
read-out: DC50
  DC50: 1000 to 5000 pM

## CN1CCN(c2ccn3ncc(-c4cn(-c5cn([C@H]6CC[C@H](CN7CCC8(CC7)CCN(c7cccc9c7n(C)c(=O)n9C7CCC(=O)NC7=O)C8)CC6)nc5C(F)F)nn4)c3n2)CC1 (some centres unmarked) [Compound 228]
  Dmax: 70 to 80%
read-out: DC50
  DC50: < 500 pM

## CN1CCN(c2ccn3ncc(-c4cn(-c5cn([C@H]6CC[C@H](CN7CCC(N8CCN(c9cccc%10c9n(C)c(=O)n%10C9CCC(=O)NC9=O)CC8)CC7)CC6)nc5C(F)F)nn4)c3n2)CC1 (some centres unmarked) [Compound 229]
  Dmax: 60 to 70%
read-out: DC50
  DC50: < 500 pM

## CN1CCN(c2ccn3ncc(-c4cn(-c5cn([C@H]6CC[C@H](CN(C)[C@H]7CC[C@H](Nc8cccc9c8n(C)c(=O)n9C8CCC(=O)NC8=O)CC7)CC6)nc5C(F)F)nn4)c3n2)CC1 (some centres unmarked) [Compound 230]
  Dmax: 60 to 70%
read-out: DC50
  DC50: 500 to 1000 pM

## CN1CCN(c2ccn3ncc(-c4cn(-c5cn([C@H]6CC[C@H](CN7CCN(C8CCN(c9cccc%10c9n(C)c(=O)n%10C9CCC(=O)NC9=O)CC8)CC7)CC6)nc5C(F)F)nn4)c3n2)CC1 (some centres unmarked) [Compound 231]
  Dmax: 70 to 80%
read-out: DC50
  DC50: 500 to 1000 pM

## CN1CCN(c2ccn3ncc(-c4cn(-c5cn([C@H]6CC[C@H](CN7CCC8(CCN(c9cccc%10c9n(C)c(=O)n%10C9CCC(=O)NC9=O)CC8)C7)CC6)nc5C(F)F)nn4)c3n2)CC1 (some centres unmarked) [Compound 232]
  Dmax: > 80%
read-out: DC50
  DC50: 500 to 1000 pM

## CN1CCN(c2ccn3ncc(-c4cn(-c5cn([C@H]6CC[C@H](CN7CCC8(CC7)CCN(c7cccc9c7n(C)c(=O)n9C7CCC(=O)NC7=O)CC8)CC6)nc5C(F)F)nn4)c3n2)CC1 (some centres unmarked) [Compound 233]
  Dmax: 70 to 80%
read-out: DC50
  DC50: 500 to 1000 pM

## Cn1c(=O)n(C2CCC(=O)NC2=O)c2cccc(N3CCN(C[C@H]4CC[C@H](n5cc(-n6cc(-c7cnn8ccc(N9CCC(C)(O)CC9)nc78)nn6)c(C(F)F)n5)CC4)CC3)c21 (some centres unmarked) [Compound 235]
  Dmax: > 80%
read-out: DC50
  DC50: < 500 pM

## Cn1c(=O)n(C2CCC(=O)NC2=O)c2cccc(N3CCN(C4CCN(C[C@H]5CC[C@H](n6cc(-n7cc(-c8cnn9ccc(N%10CCC(C)(O)CC%10)nc89)nn7)c(C(F)F)n6)CC5)CC4)CC3)c21 (some centres unmarked) [Compound 236]
  Dmax: > 80%
read-out: DC50
  DC50: < 500 pM

## Cn1c(=O)n(C2CCC(=O)NC2=O)c2cccc(N[C@H]3CC[C@H](N(C)C[C@H]4CC[C@H](n5cc(-n6cc(-c7cnn8ccc(N9CCC(C)(O)CC9)nc78)nn6)c(C(F)F)n5)CC4)CC3)c21 (some centres unmarked) [Compound 237]
  Dmax: 70 to 80%
read-out: DC50
  DC50: < 500 pM

## Cn1c(=O)n(C2CCC(=O)NC2=O)c2cccc(N3CCN(C[C@H]4CC[C@H](n5cc(-n6cc(-c7cnn8ccc(NCCC(C)(C)O)nc78)nn6)c(C(F)F)n5)CC4)CC3)c21 (some centres unmarked) [Compound 239]
  Dmax: > 80%
read-out: DC50
  DC50: < 500 pM

## Cn1c(=O)n(C2CCC(=O)NC2=O)c2cccc(N3CCC4(CCN(C[C@H]5CC[C@H](n6cc(-n7cc(-c8cnn9ccc(NCCC(C)(C)O)nc89)nn7)c(C(F)F)n6)CC5)CC4)C3)c21 (some centres unmarked) [Compound 240]
  Dmax: > 80%
read-out: DC50
  DC50: < 500 pM

## C[C@H](C#Cc1cccc2c1n(C)c(=O)n2C1CCC(=O)NC1=O)OC1CCN(C[C@H]2CC[C@H](n3cc(-n4cc(-c5cnn6ccc(N7CCOCC7)nc56)nn4)c(C(F)F)n3)CC2)CC1 (stereo partly drawn) [Example 1, 3-(4-((R)-3-((1-(((1r,4R)-4-(3-(difluoromethyl)-4-(4-(5-morpholinopyrazolo[1,5-a]pyrimidin-3-yl)-1H-1,2,3-triazol-1-yl)-1H-pyrazol-1-yl)cyclohexyl)methyl)piperidin-4-yl)oxy)but-1-yn-1-yl)-3-methyl-2-oxo-2,3-dihydro-1H-benzo[d]imidazol-1-yl)piperidine-2,6-dione]
  Dmax: < 60%
  DC50: < 500 pM

## Cn1c(=O)n(C2CCC(=O)NC2=O)c2cccc(CCCN3CCOC(CNCC4CCC(n5cc(-n6cc(-c7cnn8ccc(N9CCOCC9)nc78)nn6)c(C(F)F)n5)CC4)C3)c21 [Example 2, 3-(4-(3-((S)-2-((((4-(-3-(difluoromethyl)-4-(4-(5-morpholinopyrazolo [1,5-a]pyrimidin-3-yl)-1H-1,2,3-triazol-1-yl)-1H-pyrazol-1-ylcyclohexyl)methyl)amino)methyl)morpholinyl)propyl)-3-methyl-2-oxo-2,3-dihydro-1H-benzo[d]imidazol-1-yl)piperidine-2,6-dione]
  Dmax: < 60%
  DC50: < 500 pM

## CN(Cc1cccc2c1n(C)c(=O)n2C1CCC(=O)NC1=O)CC1CCN(C[C@H]2CC[C@H](n3cc(-n4cc(-c5cnn6ccc(N7CCOCC7)nc56)nn4)c(C(F)F)n3)CC2)CC1 (some centres unmarked) [Example 3, 3-(4-((((1-(((1r,4r)-4-(3-(difluoromethyl)-4-(4-(5-morpholinopyrazolo[1,5-a]pyrimidin-3-yl)-1H-1,2,3-triazol-1-yl)-1H-pyrazol-1-yl)cyclohexyl)methyl)piperidin-4-yl)methyl)(methyl)amino)methyl)-3-methyl-2-oxo-2,3-dihydro-1H-benzo[d]imidazol-1-yl)piperidine-2,6-dione]
  Dmax: 60 to 70%
  DC50: < 500 pM

## Cn1c(=O)n(C2CCC(=O)NC2=O)c2cccc(CN3CCC4(CC3)CC(NC[C@H]3CC[C@H](n5cc(-n6cc(-c7cnn8ccc(N9CCOCC9)nc78)nn6)c(C(F)F)n5)CC3)C4)c21 (some centres unmarked) [Example 4]
  Dmax: > 80%
  DC50: < 500 pM

## Cn1c(=O)n(C2CCC(=O)NC2=O)c2cccc(CN3CCC4(CC3)CN(C[C@H]3CC[C@H](n5cc(-n6cc(-c7cnn8ccc(N9CCOCC9)nc78)nn6)c(C(F)F)n5)CC3)CCO4)c21 (some centres unmarked) [Example 5]
  Dmax: < 60%
  DC50: < 500 pM
